Marks after values point to notes of the source that are not given here.
Columns and labels:
ORX rats [1] = assay: Vertebral bone mineral density in ORX rats; type: in vivo, rat; settings: for Vertebral BMD: solvent 762.7, sham 770.8
Experimental: (§1) 11-week-old, male Sprague-Dawley (SD) rats (320 to 340 g, purchased from Charles River Japan) were housed for 1 week in a room maintained at a light-dark cycle of 12 hours per day and controlled at a set temperature and humidity while allowing free access to a commercially available standard rodent diet and water.
(§2) After housing the animals, the animals were anesthetized with ether, and underwent bilateral orchiectomy (orchiectomized rats: ORX) or a sham treatment. After awaking from the anesthesia, the animals were assigned to test groups of 3 to 5 animals each. Starting on the day after surgery, the animals were subcutaneously injected once a day with an injection solution of the test compound (prepared by dissolving the test compound in a small amount of DMSO and diluting with olive oil for animal testing (consisting of 95% olive oil and 5% DMSO)) at the rate of 0.1 ml/100 g of body weight. After 21 days, the rats were sacrificed by exsanguination from the abdominal artery, the ventral prostates and anal levator muscle were excised and weighed followed by immersing in RNAlater (Nacalai Tesque) for extraction of RNA. In addition, soft tissue was removed from the right femur, and immersed in 75% ethanol followed by storage for subsequent measurement of the bone mineral density. Moreover, liver and visceral fat tissue were collected and immersed in RNAlater for RNA extraction.
(§3) The anabolic effect of compounds was studied by using as indicators changes in anal levator muscle weight and bone mineral density (BMD) of the femur and vertebra in the ORX rats treated in the aforementioned section (4)-1).
(§4) BMD value of epiphyseal cancellous bone of the femur and vertebra of ORX rats treated in the aforementioned section (4)-1) were measured using Scan Xmate-A100S (Comscantecno).

ORX rats [2] = assay: Plasma cholesterol level in ORX rats; type: in vivo, rat; settings: for Effect on cholesterol levels (in words): 1 and 10 mg/Kg; for Plasma cholesterol concentration: solvent 78.0, sham 64.8
Text: as §2, with “Starting on the day after surgery, the animals were subcutaneously injected once a day with an injection solution of the test compound (prepared by dissolving the test compound in a small amount of DMSO and diluting with olive oil for animal testing (consisting of 95% olive oil and 5% DMSO)) at the rate of 0.1 ml/100 g of body weight.” left out
Plasma triglyceride and cholesterol levels were measured to characterize the metabolic profiles of ORX rats treated in the aforementioned section (4)-1).

PSA mRNA = PSA mRNA expression level in ORX rat prostates; type: in vivo; settings: ORX rats; for PSA mRNA/GAPDH mRNA in prostates: 21 days, solvent 1.0, sham 114.4
Text: as §2, with “Starting on the day after surgery, the animals were subcutaneously injected once a day with an injection solution of the test compound (prepared by dissolving the test compound in a small amount of DMSO and diluting with olive oil for animal testing (consisting of 95% olive oil and 5% DMSO)) at the rate of 0.1 ml/100 g of body weight.” left out
(§5) Total RNA in various tissues of the ORX rats was isolated using the RNeasy Mini Kit or RNeasy Fibrous Tissue Mini Kit (Qiagen). 1 μg of this total RNA was subjected to reverse transcription using the QuantiaTect Reverse Transcription Kit (Qiagen). Next, cDNA was subjected to real-time PCR analysis using LightCycler (Roche Diagnostics) and each of the transcription products was quantified. Furthermore, PCR was carried out in 20 μl of a reaction mixture under the following conditions using SYBR Premix Ex Taq (Takara Biotechnology): 50 cycles consisting of denaturation for 5 seconds at 95° C., annealing for 20 seconds at 60° C. and elongation for 25 seconds at 72° C. In addition, glyceraldehyde-3-phosphate dehydrogenase (GAPDH) mRNA was simultaneously amplified as an internal standard, and the real-time PCR value of each transcription product were calculated as a relative value based on GAPDH.
The PSA mRNA expression levels in the prostates of the ORX rats obtained in the aforementioned section (4)-1) were measured according to the method of section (4)-3).

FAS mRNA = FAS mRNA level in liver and visceral fat of ORX rats; type: in vivo, rat
Text: as §2, with “Starting on the day after surgery, the animals were subcutaneously injected once a day with an injection solution of the test compound (prepared by dissolving the test compound in a small amount of DMSO and diluting with olive oil for animal testing (consisting of 95% olive oil and 5% DMSO)) at the rate of 0.1 ml/100 g of body weight.” left out
as §5
In addition, mRNA levels of insulin receptor substrate 2 (IRS-2) in the liver were also measured.

PSA promoter = assay: PSA promoter-luciferase activity in LNCaP cells (dual-luciferase reporter); type: cell-based, human
Experimental: Plasmid pCMV-hAR was constructed based on a method previously reported by the inventors of the present invention (J. Biol. Chem., 282, 7329-7338). In addition, reporter plasmids consisting of PGL3-PSA (human) and PGL3-UCP-1 (mouse) were also constructed based on a method previously reported by the inventors of the present invention (Diabetes, 54, 1000-1008). Furthermore, pRL-SV40 was acquired commercially.
NIH-3T30-L1 mouse preadipocytes were cultured in Dulbecco's modified Eagle's medium (Sera Laboratories) containing 10% fetal calf serum. In addition, cells of human prostate cancer cell line LNCap were cultured in RPMI 1640 medium (Sigma) containing 10% fetal calf serum. Furthermore, these two types of cell lines were obtained from the American Type Culture Collection (Manassas).
The NIH-3T3-L1 cells of 2) above were co-transfected with pCMV-hAR, pRL-SV40 and PGL3-UCP-1 (mouse) in a 24-well plate using an Effectene Transfection Kit (Qiagen) and a Fugene HD Kit (Roche Diagnostics). In addition, the LNCaP cells of 2) above were similarly co-transfected with pCMV-hAR, pRL-SV40 and PGL3-PSA (human).
4) Measurement of Effect on PSA Promoter-Luciferase Activity in LNCaP Cells
The LNCaP cells co-transfected in 3) above were cultured for 24 hours in DMEM or RPMI 1640 containing 10% fetal calf serum treated with dextran-charcoal and a test compound (dissolved in a small amount of DMSO) 24 hours after transfection. Subsequently, the activities of firefly luciferase and Renilla luciferase were assayed in a 24-well plate using the Dual-Luciferase Reporter Assay System (Promega) in accordance with the protocol of Minilumat LB9507 (Berthold Technologies). Furthermore, the value of firefly luciferase activity were normalized based on the internal Renilla control, and were presented as relative luciferase activity.

ORX rats [3] = assay: Femoral bone mineral density in ORX rats; type: in vivo, rat; settings: solvent 465.3, sham 517.1
Experimental: as §1, §2, §3, §4

ORX rats [4] = assay: Prostate weight in ORX rats (virilization effect); type: in vivo, rat; settings: for Prostate weight: 21 days, solvent 10.2, sham 132.5; for Change in prostate weight (in words): doses of 1 to 10 mg/kg body weight
Experimental: The virilization effect of compounds was studied by using the changes in prostate weight during administration of the compounds to ORX rats as an indicator of virilization effect.
as §1, §2

[5] = liver, 1 mg/Kg, solvent 0.9, sham 1.0
[6] = liver, 10 mg/Kg, solvent 0.9, sham 1.0
[7] = visceral fat, 1 mg/Kg, solvent 0.5, sham 1.0
[8] = visceral fat, 10 mg/Kg, solvent 0.5, sham 1.0

Row | Structure (SMILES) | Vertebral BMD (ORX rats [1]; 1 mg/Kg) | Vertebral BMD (ORX rats [1]; 10 mg/Kg) | Effect on cholesterol levels (in words) (ORX rats [2]) | PSA mRNA/GAPDH mRNA in prostates (PSA mRNA; 1 mg/Kg s.c. once a day) | PSA mRNA/GAPDH mRNA in prostates (PSA mRNA; 10 mg/Kg s.c. once a day) | FAS mRNA/GAPDH mRNA level (FAS mRNA; [5]) | FAS mRNA/GAPDH mRNA level (FAS mRNA; [6]) | FAS mRNA/GAPDH mRNA level (FAS mRNA; [7]) | FAS mRNA/GAPDH mRNA level (FAS mRNA; [8]) | Femoral BMD (ORX rats [3]; 1 mg/Kg) | Femoral BMD (ORX rats [3]; 10 mg/Kg) | Prostate weight (ORX rats [4]; 1 mg/Kg s.c. once a day) | Prostate weight (ORX rats [4]; 10 mg/Kg s.c. once a day) | Change in prostate weight (in words) (ORX rats [4]) | further results
1 | C[C@]12CCC(=O)C[C@@H]1CC[C@@H]1[C@@H]2CC[C@]2(C)[C@@H](O)CC[C@@H]12 [Dihydrotestosterone, 5α-dihydrotestosterone, reference compound] | 768.4 mg/mL | 763.2 mg/mL | lowered cholesterol levels | 211.4**^,## | 209.8**^,## | 8.0 | 7.1 | 2.3 | 3.5*^,# | 472.0 mg/mL | 473.6 mg/mL | 168.6**^,## mg/100 g of body weight | 216.9*^,## mg/100 g of body weight | increased dose-dependently | Effect on vertebral BMD (in words) (ORX rats [1]; 1 and 10 mg/Kg): did not have an effect on vertebral BMD; Increase of prostate PSA mRNA level in comparison with the sham treatment group (PSA mRNA; 1 and 10 mg/Kg): about 1.8 fold; PSA promoter activity stimulation (PSA promoter; 10^−7 M or 10^−8 M): roughly 9 fold
2 | CC(=O)[C@H]1CCC2C3CCc4c(C)cccc4C3CC[C@@]21C (some centres unmarked) [Compound of formula (Ia)] | 769.5 mg/mL | 770.3 mg/mL | did not have an effect on cholesterol levels | 1.0** | 1.2** | 0.7 | 0.5 | 0.3* | 0.6 | 447.2 mg/mL | 454.0 mg/mL | 11.1** mg/100 g of body weight | 13.3** mg/100 g of body weight | did not increase | Vertebral BMD (ORX rats [1]; 30 mg/Kg): 775.1 mg/mL; Plasma cholesterol concentration (ORX rats [2]; 1 mg/Kg): 66.0 mg/dL; Plasma cholesterol concentration (ORX rats [2]; 10 mg/Kg): 71.5 mg/dL; Change in prostate PSA mRNA levels (in words) (PSA mRNA; 1 and 10 mg/Kg): no changes observed; FAS mRNA levels (in words) (FAS mRNA; liver and visceral fat): also lower; Value of luciferase transcription activity (PSA promoter, relative luciferase activity) (PSA promoter; 10^−5M, 24 hours, control (DMSO) 1.0): 1.3; Femoral BMD (ORX rats [3]; 30 mg/Kg): 475.9 mg/mL

Reference: patent US8623909B2, “Prophylactic/therapeutic agents for lifestyle-related diseases” (priority 2008, dated 2014)
